Measured values published in article PMC5819394 (Proceedings of the National Academy of Sciences of the …, 2018).
Read-outs that look alike come from different tables or passages of the source.

Test system: GenL
Type: biochemical, Micromonospora echinospora

Compound	Km (SAM as methyl donor, integrated Michaelis-Menten fit) [µM]	Km [µM]
CN[C@@H]1[C@@H](O)[C@@H](O[C@@H]2[C@@H](O)[C@H](O[C@H]3O[C@H]([C@@H](C)N)CC[C@H]3N)[C@@H](N)C[C@H]2N)OC[C@]1(C)O [C2]	77.8 ± 8	
CN[C@@H]1[C@@H](O)[C@@H](O[C@@H]2[C@@H](O)[C@H](O[C@H]3O[C@H](CN)CC[C@H]3N)[C@@H](N)C[C@H]2N)OC[C@]1(C)O [C1a]		347 ± 86
